The values that follow come from patent US9682058B2, “Method of treating viral infections by administration of ethyl mercury or thiol derivative thereof” (BEECH TREE LABS, INC., priority 2010, dated 2017).

Each structure is given as a SMILES string. Several values for one entry are separate records, joined by “and”; a condition that tells them apart may be missing. Identical values can stand only once. Like-named read-outs stand apart in the source and are kept apart here.

One series deals with herpes virus. The conditions noted are these: cited from earlier work.
Series [1] concerns BK virus.
Series [2] concerns Vero cells.
A further series concerns adenovirus. The settings on record: person, one drop (0.05 cc) every 15 minutes for an hour, then every hour until bedtime. The protocol:
A person with symptoms of an adenovirus infection took one drop of thimerosal (in a dose of 0.05 cc) every 15 minutes for an hour, and then one drop every hour until bedtime.

For the next series, the system named is herpes viruses. The settings on record: cited from earlier work.
Series [3] relates to HSV. The conditions noted are these: ARPE-19 cells, 40 ng/ml, continuous treatment before HSV infection, depending on the treatment time point.
Series [4] has as its system Vero cells. The conditions noted are these: thimerosal doses tested (40 ng or 80 ng in 100 μl media). The protocol:
Vero cells were plated to a density of 70% confluency in 96-well dishes at a concentration of 75,000 cells/well). Cells were pretreated with either 40 ng or 80 ng thimerosal in 100 μl media for either 1 hour, 2 hours, 3 hours, 4 hours or 16 hours prior to infection.
After 1 hour at 37° C., virus was removed and cells were washed with unsupplemented MEM to remove unbound virus. The cells were then fed 100 μl/well complete media and stained for Tad (BK virus) or V-ag (JC virus) and scored via direct immunofluorescence.

Series [5] has as its system HSV. The settings on record: ARPE-19 cells, media of PBMCs incubated with 40 ng/ml thimerosal, overlaid prior to HSV infection. The protocol:
PBMCs were incubated with 40 ng/ml thimerosal for a minimum of 6 hours and then were overlaid in ARPE-19 cells at various time points (12 hours, 4 hours, 2 hours, 1 hour, 30 minutes and 10 minutes) prior to HSV infection of the ARPE-19 cells. ARPE-19 cells were not continuously treated with thimerosal. ARPE-19 cells receiving thimerosal treatment with PBMC media was used as a control. The number of plaques formed on day 6 post-infection was used to measure the effectiveness of thimerosal in preventing HSV infections. The number of plaques was normalized to the number of plaques in the control.

Series [6] has as its system HSV. The settings on record: Vero cells, 40 ng/ml. The protocol: Green Monkey Kidney (Vero) cells were treated with thimerosal (40 ng/ml) at various time points (12 hours, 4 hours, 1 hour, and 30 minutes) prior to and at the time of HSV infection. The number of plaques formed on day 6 post-infection was used to measure the effectiveness of thimerosal in preventing HSV infections.

The test system of series [7] is BK virus. The source holds these as a separate data set.
The test system of another series is laryngeal papillomas. The conditions noted are these: child, one drop (0.05 cc) every 15 minutes for an hour, then hourly; six times daily on days 2 and 3. The protocol: A child suffering from laryngeal papillomas spreading to the soft palate was treated with one drop of thimerosal (in a dose of 0.05 cc) every 15 minutes for an hour and then one drop every hour until bedtime. Thimerosal was administered in one drop every six times daily on days 2 and 3 and then as needed on subsequent days.

The next series concerns common cold. The protocol:
A fifty-three old person with classic symptoms of the common cold used one drop of thimerosal (in a dose of 0.05 cc) every hour for one day.
The child of the person in Example 4 was treated with thimerosal for the common cold on several occasions. The child experienced symptoms for 5-7 days without treatment, which was reduced to 1-3 days when treated with thimerosal.

The text on series [8]: A parent shared a drink with their child. Later that day the child asked their parent, who is an RN, to check the child's glands as they felt swollen and their throat hurt.
In series [9] the test system is molluscum contagiosum, a poxvirus infection. The conditions noted are these: several children, one drop (0.05 cc) every 15 minutes for an hour, then hourly; six times daily on days 2 and 3.
Series [10] deals with HSV. The settings on record: Vero cells, 40 ng/ml. The protocol:
Green Monkey Kidney (Vero) cells were treated with thimerosal (40 ng/ml) at various time points (30 minutes, 1 hour, 2 hours, 3, hours, 4 hours, 6 hours and 8 hours) after HSV infection. The number of plaques formed on day 6 post-infection was used to measure the effectiveness of thimerosal in preventing HSV infections. The number of plaques was normalized to the number of plaques in the control.
This is another data set of the same source.

For a further series, the system named is porcine oocytes. The settings on record: cited from earlier work.
Setting [11] is: treatment at the time of infection.

Turning to `O=C(O)c1ccccc1S` [thiosalicylic acid], the “antiviral activity in vivo” value in the series with herpes virus is given as “do not provide antiviral activity in vivo”.

On to `C[CH2][Hg][S]c1ccccc1C(=O)[O-].[Na+]` [thimerosal], for which the “infectivity of BK virus” value in the series with BK virus [1] and with BK virus [7] was “reduction of the infectivity of the virus” in each case. For the same molecule, the “reduction of infectivity of BK virus” value in the series with BK virus [1] is reported as “approximately 30%”. In addition, the figures for the toxicity to cells entry with Vero cells [2] and in the series on Vero cells [4] were “appeared to be toxic” and “did not appear to be toxic”, respectively. The “symptoms of an adenovirus infection” value in the series with adenovirus was “significantly reduced and were gone the next day”. The “anti-herpes virus activity in vitro” value in the series on herpes viruses was “demonstrate activity against herpes viruses”. The viral propagation entry in the series with herpes viruses (thimerosal mixed in a test tube with herpes virus, subsequently introduced into susceptible cells) was “viral propagation is not inhibited”. Also, the “Fold changes (vs. Control)” value in the series on TUBB4Q is 1.85; with TUBE1 it was 1.95 and 2.03 and 1.98; in the series on TUBB4, 2.13 and 2.12; in the series with LAT-SPNS1, 1.87; in the series on SP1, 1.95 and 2.04 and 2; in the series on POLR2A, −1.84. Moreover, in the series on TUBA4A, the “Fold changes (vs. Control)” value was 1.96 and 2 and 1.95. Further, the “inhibition of the activity of HSV (plaques, percent of control)” value with HSV [3] is recorded as “up to 55%”. Moreover, the “antiviral activity (plaques day 6) versus thimerosal alone” value in the series with HSV [5] is given as “stronger antiviral activity”. The “number of plaques formed on day 6 post-infection” value is given as “significant decrease in the number of plaques” in the series on HSV [6] (prophylactic therapy (12 hours, 4 hours, 1 hour, 30 minutes prior to HSV infection)); “highest reduction in the plaque number” in the series with HSV [6] (treatment 1 hour prior to HSV infection); “did not reduce the number of plaques” with HSV [6] (setting [11]); “did not significantly reduce the number of plaques” in the series on HSV [10] (all other post-infection time points (30 minutes, 4, 6, 8 hours)); “significant reduction in the plaque numbers” with HSV [10] (post-infection treatment from 1-3 hours); “did not change the number of plaques” in the series on HSV [10] (setting [11]). Further, in the series with laryngeal papillomas, the “resolution of the symptoms of laryngeal papillomas” value was “complete in five days”. Besides, the “duration of common cold symptoms when treated” value in the series on common cold (child, several occasions, 5-7 days without treatment) is 1 to 3 days. Moreover, the “symptoms of the common cold” value in the series on common cold (fifty-three old male, one drop (0.05 cc) every hour for one day) is given as “resolved by the next day”. Also, in [8] (child, one drop (0.05 cc) at a two hour interval), the “symptoms (swollen glands, sore throat)” value is on record as “symptoms were resolved”. In addition, the “development of symptoms after prophylactic dosing” value in series [8] (parent, dosed as a prophylactic measure) was “did not develop any symptoms”. Further, the “treatment outcome of molluscum contagiosum” value in series [9] is recorded as “successfully treated”. Further, the “infectivity of the JC virus” value with JC virus is “did not appear to inhibit infectivity”. Further, the oocyte activation result with porcine oocytes (10 minute exposure to 200 μM thimerosal followed by 30 minute incubation in 8 mM DTT) is “induced complete activation of porcine oocytes”. The oocyte cell-cycle effect entry in the series with porcine oocytes (thimerosal treatment alone) is given as “arrests oocytes in metaphase”.

`O=C(O)c1ccccc1SSc1ccccc1C(=O)O` [dithiodibenzoic acid]: the “anti-herpes virus activity in vitro” value in the series with herpes viruses is given as “indicated anti-herpes virus activity in vitro”. Further, in the series with herpes virus, the “antiviral activity in vivo” value was “do not provide antiviral activity in vivo”.
